Measurements as given in the NIST ThermoML archive (doi:10.1016/j.fluid.2017.12.010).

Assay: xn = mol fraction of the nth substance listed
Conditions: Liquid, Vibrating tube method, x1 = 1

CCCCCCCCCC [decane] + CCCCCCCCCCCC
Conditions | mass density [kg/m3]
283.55 K, 5000 kPa | 742
283.56 K, 3000 kPa | 740
283.56 K, 20000 kPa | 752
283.56 K, 30000 kPa | 758
283.56 K, 40000 kPa | 763
283.56 K, 50000 kPa | 769
283.56 K, 60000 kPa | 774
283.56 K, 70000 kPa | 779
283.56 K, 80000 kPa | 783
283.56 K, 90000 kPa | 788
283.57 K, 1000 kPa | 739
283.57 K, 10000 kPa | 745
283.58 K, 100 kPa | 738
293.48 K, 100 kPa | 731
293.48 K, 1000 kPa | 731
293.49 K, 5000 kPa | 734
293.49 K, 10000 kPa | 738
293.49 K, 20000 kPa | 745
293.5 K, 30000 kPa | 751
293.5 K, 40000 kPa | 757
293.5 K, 50000 kPa | 763
293.5 K, 100000 kPa | 787
293.51 K, 60000 kPa | 768
293.51 K, 70000 kPa | 773
293.51 K, 80000 kPa | 778
293.51 K, 90000 kPa | 783
303.42 K, 100 kPa | 723
303.42 K, 1000 kPa | 724
303.42 K, 10000 kPa | 731
303.42 K, 30000 kPa | 745
303.42 K, 40000 kPa | 751
303.42 K, 70000 kPa | 768
303.42 K, 80010 kPa | 773
303.42 K, 90000 kPa | 777
303.43 K, 5000 kPa | 727
303.43 K, 20000 kPa | 738
303.43 K, 50000 kPa | 757
303.43 K, 60000 kPa | 762
303.43 K, 100000 kPa | 782
313.35 K, 100 kPa | 716
313.35 K, 1000 kPa | 717
313.35 K, 5000 kPa | 721
313.35 K, 40000 kPa | 746
313.36 K, 20000 kPa | 732
313.36 K, 50000 kPa | 752
313.36 K, 70000 kPa | 763
313.36 K, 80000 kPa | 768
313.36 K, 90000 kPa | 773
313.36 K, 100000 kPa | 777
313.37 K, 10000 kPa | 725
313.37 K, 30000 kPa | 739
313.37 K, 60000 kPa | 757
323.24 K, 100 kPa | 708
323.24 K, 1000 kPa | 709
323.24 K, 100000 kPa | 771
323.25 K, 5000 kPa | 712
323.25 K, 10000 kPa | 717
323.25 K, 20000 kPa | 725
323.25 K, 30000 kPa | 732
323.25 K, 40000 kPa | 739
323.25 K, 50000 kPa | 745
323.25 K, 60000 kPa | 751
323.25 K, 70000 kPa | 757
323.25 K, 80000 kPa | 762
323.25 K, 90000 kPa | 767
333.12 K, 5000 kPa | 705
333.12 K, 10000 kPa | 710
333.12 K, 20000 kPa | 718
333.13 K, 100 kPa | 700
333.13 K, 1000 kPa | 701
333.13 K, 30000 kPa | 726
333.13 K, 80000 kPa | 757
333.13 K, 90000 kPa | 762
333.13 K, 100000 kPa | 767
333.14 K, 40000 kPa | 733
333.14 K, 50000 kPa | 740
333.14 K, 60000 kPa | 746
333.14 K, 70000 kPa | 751
343.01 K, 100 kPa | 693
343.01 K, 1000 kPa | 694
343.01 K, 10000 kPa | 703
343.01 K, 20000 kPa | 712
343.01 K, 30000 kPa | 720
343.01 K, 40000 kPa | 727
343.01 K, 50000 kPa | 734
343.01 K, 60000 kPa | 740
343.02 K, 5000 kPa | 698
343.02 K, 70000 kPa | 746
343.02 K, 80000 kPa | 752
343.02 K, 90000 kPa | 757
343.02 K, 100000 kPa | 762
352.87 K, 100 kPa | 686
352.87 K, 1000 kPa | 687
352.87 K, 5000 kPa | 691
352.88 K, 10000 kPa | 696
352.88 K, 20000 kPa | 706
352.88 K, 30000 kPa | 714
352.88 K, 40000 kPa | 722
352.88 K, 50000 kPa | 729
352.88 K, 60000 kPa | 735
352.89 K, 70000 kPa | 741
352.89 K, 80000 kPa | 747
352.89 K, 90000 kPa | 753
352.89 K, 100000 kPa | 758
362.69 K, 100 kPa | 677
362.69 K, 1000 kPa | 678
362.7 K, 5000 kPa | 683
362.7 K, 10000 kPa | 689
362.71 K, 20000 kPa | 699
362.71 K, 30000 kPa | 708
362.71 K, 40000 kPa | 716
362.71 K, 50000 kPa | 723
362.71 K, 60000 kPa | 730
362.72 K, 70000 kPa | 736
362.72 K, 80000 kPa | 742
362.72 K, 90000 kPa | 747
362.72 K, 100000 kPa | 753
